# Assay results published in publication PMC8505397, “Development of peptides targeting receptor binding site of the envelope glycoprotein to contain the West Nile virus infection” (Scientific Reports, 2021).
# System: adhesion of rDIII on cultured hBMECs
# Experiment: Blocking of adhesion of rDIII on cultured hBMECs by peptides (immunocytochemistry)
# Format: cell-based, human
# Details: 5 µg (0.39 nM) rDIII pre-blocked with tenfold molar excess (3.9 nM) of peptide
# Description: Cells were cultured as described in Supplementary Method S1. First, concentration-dependent immunocytochemistry was performed to reveal the minimum concentration of rDIII required to detect its adhesion to the endothelial cells. Details are presented in Supplementary Method S14.
# After that, the ability of peptides to block the adhesion of rDIII to the culture of hBMECs was judged. A tenfold molar excess of each peptide was incubated with rDIII for 1 h at room temperature. Pre-incubated rDIII was subsequently used in the assay. Details are described in the Supplementary Method S14. […]
# Blocking of adhesion of rDIII on cultured hBMECs by peptides (immunocytochemistry). First, different concentrations of rDIII were tested to get the minimum concentration of rDIII required to detect the adhesion of the domain to the cultured hBMECs. In short, hBMECs were cultured on collagen type I (Sigma) coated coverslips in a 12-well culture plate in EBM-2 medium (Lonza) as was described in Supplementary Method S1 until 70% confluency. Cells were washed 2 times with PBS (pH 7.4) and fixed with acetone/ethanol (8:2 [v/v]) for 10 min at 4°C. Cells were washed 3 times with PBS (pH 7.4) and incubated with rDIII at different concentrations (20 µg, 15 µg, 10 µg, 5 µg, 2.5 µg, 2 µg, and 1 µg) diluted in 1 mL of PBS (pH 7.4) for 1 h at room temperature with gentle shaking. […]
smiles,measurement,value
"CC[C@H](C)[C@@H]1NC(=O)[C@@H](NC(=O)[C@H](C)N)CSSC[C@@H](C(=O)NCC(=O)NCC(=O)NCC(=O)N[C@@H](CO)C(=O)O)NC(=O)[C@H](C)NC(=O)[C@H](CCCNC(=N)N)NC(=O)[C@H]([C@@H](C)O)NC(=O)[C@H](CO)NC(=O)[C@H](CO)NC(=O)[C@H](Cc2c[nH]cn2)NC1=O [CP4, CIHSSTRAC]",inhibition of the adhesion of rDIII on endothelial cells (immunocytochemistry),able to inhibit the adhesion of rDIII on the endothelial cells
